Source: ChEMBL document CHEMBL5725380, “Substituted biaryl compound” (2017)

Biological target: Prostaglandin E2 receptor EP2 subtype (Homo sapiens, UniProt P43116)
Experiment: Binding Assay: Measurement of EP2 receptor binding action was performed in accordance with the method of Abramovitz et al. (Biochimica et Biophysica Acta, 1483, 285 (2000)). A test compound dissolved in dimethyl sulfoxide (final concentration: 1.0 (V/V) %) and [3H]prostaglandin E2 (NET-428, manufactured by PerkinElmer) (final concentration: 10 nM) were added to a buffer solution (10 mM MES-KOH (pH 6.0), 10 mM MgCl2, 1 mM EDTA) in which 10 μg of a membrane fraction of HEK293 cells expressing human EP2 receptor (ES-562-M, manufactured by Euroscreen) was suspended, and then incubated at 30° C. for 60 minutes. The membrane fraction was recovered on glass fiber filter paper (GF/B, manufactured by Whatman) using a cell harvester (M30R, manufactured by Brandel), and after washing with a buffer solution (10 mM MES-KOH (pH 6.0), 10 mM MgCl2), radioactivity was measured with a liquid scintillation analyzer (2000CA, manufactured by Packard).
Assay type: cell membranes

Chain of Prostaglandin E2 receptor EP2 subtype (P43116 whole entry): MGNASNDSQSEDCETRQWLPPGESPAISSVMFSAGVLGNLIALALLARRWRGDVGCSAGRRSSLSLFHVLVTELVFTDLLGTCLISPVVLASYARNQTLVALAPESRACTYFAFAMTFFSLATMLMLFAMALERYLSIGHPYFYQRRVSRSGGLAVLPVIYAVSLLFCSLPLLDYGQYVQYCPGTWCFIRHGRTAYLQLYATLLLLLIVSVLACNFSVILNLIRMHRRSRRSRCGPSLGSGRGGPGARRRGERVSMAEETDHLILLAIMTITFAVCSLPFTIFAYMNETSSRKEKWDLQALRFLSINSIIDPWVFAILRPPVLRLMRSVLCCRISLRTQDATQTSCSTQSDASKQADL

Ki	SMILES
2.6 nM	CCOc1ccccc1-c1ccc(CN(Cc2cccc(NCC(=O)O)n2)S(=O)(=O)c2ccccn2)cc1
> 10 nM	Cc1cnc(-c2ccc(CN(Cc3cccc(NCC(=O)O)n3)S(=O)(=O)c3ccccn3)cc2)s1
> 10 nM	CCOc1ccc(-c2ccc(CN(Cc3cccc(NCC(=O)O)n3)S(=O)(=O)c3ccccn3)cc2)cc1
1.1 nM	CCCc1cccc(-c2ccc(CN(Cc3cccc(NCC(=O)O)n3)S(=O)(=O)c3ccccn3)cc2)c1
2.2 nM	Cc1cccc(-c2ccc(CN(Cc3cccc(NCC(=O)O)n3)S(=O)(=O)c3ccccn3)cc2)c1
1.4 nM	CCc1cccc(-c2ccc(CN(Cc3cccc(NCC(=O)O)n3)S(=O)(=O)c3ccccn3)cc2)c1
1.2 nM	COc1cccc(-c2ccc(CN(Cc3cccc(NCC(=O)O)n3)S(=O)(=O)c3ccccn3)cc2)c1
1.7 nM	C=CCc1cccc(-c2ccc(CN(Cc3cccc(NCC(=O)O)n3)S(=O)(=O)c3ccccn3)cc2)c1

SMILES	Ki
O=C(O)CNc1cccc(CN(Cc2ccc(-c3ccc(Cl)cc3)cc2)S(=O)(=O)c2cccnc2)n1	> 10 nM
CC#Cc1cccc(-c2ccc(CN(Cc3cccc(NCC(=O)O)n3)S(=O)(=O)c3cccc(F)c3)cc2)c1	1.4 nM
CC#Cc1ccc(-c2ccc(CN(Cc3cccc(NCC(=O)O)n3)S(=O)(=O)c3ccccn3)cc2)cc1	6.8 nM
CC#Cc1ccccc1-c1ccc(CN(Cc2cccc(NCC(=O)O)n2)S(=O)(=O)c2ccccn2)cc1	0.75 nM
